Results taken from ChEMBL document CHEMBL1152457, “Antimicrobial drug resistance of Salmonella enterica serovar typhi in asia and molecular mechanism of reduced susceptibility to the fluoroquinolones” (2007).
Values after ≈ are worked out from the molar mass of the structure shown.

Legend:
Type in all cases: functional, Salmonella enterica subsp. enterica serovar Typhi
[1] = test system: Salmonella enterica subsp. enterica; test: Antimicrobial activity against Salmonella enterica Serovar Typhi isolate AG169 harboring DNA gyrase A S83F mutation by disk diffusion method
[2] = test system: Salmonella enterica subsp. enterica; test: Antimicrobial activity against multidrug-resistant Salmonella enterica Serovar Typhi isolate nar 51 harboring DNA gyrase A S83F mutation by disk diffusion method
[3] = test system: Salmonella enterica subsp. enterica; test: Antimicrobial activity against multidrug-resistant Salmonella enterica Serovar Typhi isolate B111 harboring DNA gyrase A S83Y mutation by disk diffusion method in presence of plasmid mediated quinolone-resistant gene qnrA and qnrS
[4] = test system: Salmonella enterica subsp. enterica; test: Antimicrobial activity against multidrug-resistant Salmonella enterica Serovar Typhi isolate AG8 harboring DNA gyrase A S83F mutation by disk diffusion method
[5] = test system: Salmonella enterica subsp. enterica; test: Antimicrobial activity against multidrug-resistant Salmonella enterica Serovar Typhi isolate nar 46 harboring DNA gyrase A D87G mutation by disk diffusion method
[6] = test system: Salmonella enterica subsp. enterica; test: Antimicrobial activity against multidrug-resistant Salmonella enterica Serovar Typhi isolate AG168 harboring DNA gyrase A S83F mutation by disk diffusion method
[7] = test system: Salmonella enterica subsp. enterica; test: Antimicrobial activity against Salmonella enterica Serovar Typhi isolate CT144 harboring DNA gyrase A D87G mutation by disk diffusion method in presence of plasmid mediated quinolone-resistant gene qnrA and qnrS
[8] = test system: Salmonella enterica subsp. enterica; test: Antimicrobial activity against multidrug-resistant Salmonella enterica Serovar Typhi isolate CT29 harboring DNA gyrase A S83F mutation by disk diffusion method in presence of plasmid mediated quinolone-resistant gene qnrA and qnrS
[9] = test system: Salmonella enterica subsp. enterica; test: Antimicrobial activity against multidrug-resistant Salmonella enterica Serovar Typhi isolate AG152 harboring DNA gyrase A S83F and D87G mutation by disk diffusion method in presence of plasmid mediated quinolone-resistant gene qnrA and qnrS
[10] = test system: Salmonella enterica subsp. enterica; test: Antimicrobial activity against Salmonella enterica Serovar Typhi isolate E86 harboring DNA gyrase A S83F mutation by disk diffusion method in presence of plasmid mediated quinolone-resistant gene qnrA and qnrS
[11] = test system: Salmonella enterica subsp. enterica; test: Antimicrobial activity against multidrug-resistant Salmonella enterica Serovar Typhi isolate AG176 harboring DNA gyrase A S83F mutation by disk diffusion method
[12] = test system: Salmonella enterica subsp. enterica; test: Antimicrobial activity against multidrug-resistant Salmonella enterica Serovar Typhi isolate nar 107 harboring DNA gyrase A S83F mutation by disk diffusion method in presence of plasmid mediated quinolone-resistant gene qnrA and qnrS
[13] = test system: Salmonella enterica subsp. enterica; test: Antimicrobial activity against multidrug-resistant Salmonella enterica Serovar Typhi isolate DT15 harboring DNA gyrase A S83F mutation by disk diffusion method
[14] = test system: Salmonella enterica subsp. enterica; test: Antimicrobial activity against Salmonella enterica Serovar Typhi isolate CT145 harboring DNA gyrase A S83F mutation by disk diffusion method in presence of plasmid mediated quinolone-resistant gene qnrA and qnrS
[15] = test system: Salmonella enterica subsp. enterica; test: Antimicrobial activity against Salmonella enterica Serovar Typhi isolate ipt 2 harboring DNA gyrase A D87G mutation by disk diffusion method in presence of plasmid mediated quinolone-resistant gene qnrA and qnrS
[16] = test system: Salmonella enterica subsp. enterica; test: Antimicrobial activity against multidrug-resistant Salmonella enterica Serovar Typhi isolate nar 45 harboring DNA gyrase A S83F mutation by disk diffusion method
[17] = test system: Salmonella enterica subsp. enterica; test: Antimicrobial activity against multidrug-resistant Salmonella enterica Serovar Typhi isolate AG16 harboring DNA gyrase A S83F mutation by disk diffusion method
[18] = test system: Salmonella enterica subsp. enterica; test: Antimicrobial activity against multidrug-resistant Salmonella enterica Serovar Typhi isolate DT18 harboring DNA gyrase A S83F and D87G mutation by disk diffusion method
[19] = test system: Salmonella enterica subsp. enterica; test: Antimicrobial activity against Salmonella enterica Serovar Typhi isolate AG182 harboring DNA gyrase A S83F mutation by disk diffusion method
[20] = test system: Salmonella enterica subsp. enterica; test: Antimicrobial activity against multidrug-resistant Salmonella enterica Serovar Typhi isolate CT118 harboring DNA gyrase A S83F mutation by disk diffusion method in presence of plasmid mediated quinolone-resistant gene qnrA and qnrS
[21] = test system: Salmonella enterica subsp. enterica; test: Antimicrobial activity against multidrug-resistant Salmonella enterica Serovar Typhi isolate DT47 harboring DNA gyrase A S83F mutation by disk diffusion method in presence of plasmid mediated quinolone-resistant gene qnrA and qnrS
[22] = test system: Salmonella enterica subsp. enterica; test: Antimicrobial activity against multidrug-resistant Salmonella enterica Serovar Typhi isolate HTD 798 harboring DNA gyrase A S83F mutation by disk diffusion method
[23] = test system: Salmonella enterica subsp. enterica; test: Antimicrobial activity against multidrug-resistant Salmonella enterica Serovar Typhi isolate nar 50 harboring DNA gyrase A S83F mutation by disk diffusion method
[24] = test system: Salmonella enterica subsp. enterica; test: Antimicrobial activity against multidrug-resistant Salmonella enterica Serovar Typhi isolate AG6 harboring DNA gyrase A S83F mutation by disk diffusion method
[25] = test system: Salmonella enterica subsp. enterica; test: Antimicrobial activity against Salmonella enterica Serovar Typhi isolate BL 21801 harboring DNA gyrase A S83F mutation by disk diffusion method in presence of plasmid mediated quinolone-resistant gene qnrA and qnrS
[26] = test system: Salmonella enterica subsp. enterica; test: Antimicrobial activity against multidrug-resistant Salmonella enterica Serovar Typhi isolate AG17 harboring DNA gyrase A S83F mutation by disk diffusion method
[27] = test system: Salmonella enterica subsp. enterica; test: Antimicrobial activity against Salmonella enterica Serovar Typhi isolate C152 harboring DNA gyrase A S83Y mutation by disk diffusion method in presence of plasmid mediated quinolone-resistant gene qnrA and qnrS
[28] = test system: Salmonella enterica subsp. enterica; test: Antimicrobial activity against Salmonella enterica Serovar Typhi isolate AG259 harboring DNA gyrase A S83F mutation by disk diffusion method in presence of plasmid mediated quinolone-resistant gene qnrA and qnrS
[29] = test system: Salmonella enterica subsp. enterica; test: Antimicrobial activity against multidrug-resistant Salmonella enterica Serovar Typhi isolate AG5 harboring DNA gyrase A S83F mutation by disk diffusion method
[30] = test system: Salmonella enterica subsp. enterica; test: Antimicrobial activity against multidrug-resistant Salmonella enterica Serovar Typhi isolate DT37 harboring DNA gyrase A S83F mutation by disk diffusion method
[31] = test system: Salmonella enterica subsp. enterica; test: Antimicrobial activity against multidrug-resistant Salmonella enterica Serovar Typhi isolate DT2 harboring DNA gyrase A S83F mutation by disk diffusion method in presence of plasmid mediated quinolone-resistant gene qnrA and qnrS
[32] = test system: Salmonella enterica subsp. enterica; test: Antimicrobial activity against Salmonella enterica Serovar Typhi isolate D43 harboring DNA gyrase A S83Y mutation by disk diffusion method in presence of plasmid mediated quinolone-resistant gene qnrA and qnrS
[33] = test system: Salmonella enterica subsp. enterica; test: Antimicrobial activity against multidrug-resistant Salmonella enterica Serovar Typhi isolate BL 21095 harboring DNA gyrase A S83F mutation by disk diffusion method in presence of plasmid mediated quinolone-resistant gene qnrA and qnrS
[34] = test system: Salmonella enterica subsp. enterica; test: Antimicrobial activity against multidrug-resistant Salmonella enterica Serovar Typhi isolate DT3 harboring DNA gyrase A S83F mutation by disk diffusion method in presence of plasmid mediated quinolone-resistant gene qnrA and qnrS
[35] = test system: Salmonella enterica subsp. enterica; test: Antimicrobial activity against multidrug-resistant Salmonella enterica Serovar Typhi isolate A102 harboring DNA gyrase A S83Y mutation by disk diffusion method in presence of plasmid mediated quinolone-resistant gene qnrA and qnrS
[36] = test system: Salmonella enterica subsp. enterica; test: Antimicrobial activity against multidrug-resistant Salmonella enterica Serovar Typhi isolate nar 104 harboring DNA gyrase A S83F mutation by disk diffusion method in presence of plasmid mediated quinolone-resistant gene qnrA and qnrS
[37] = test system: Salmonella enterica subsp. enterica; test: Antimicrobial activity against Salmonella enterica Serovar Typhi isolate CT142 harboring DNA gyrase A S83F mutation by disk diffusion method in presence of plasmid mediated quinolone-resistant gene qnrA and qnrS
[38] = test system: Salmonella enterica subsp. enterica; test: Antimicrobial activity against multidrug-resistant Salmonella enterica Serovar Typhi isolate ipt 33 harboring DNA gyrase A S83F mutation by disk diffusion method
[39] = test system: Salmonella enterica subsp. enterica; test: Antimicrobial activity against multidrug-resistant Salmonella enterica Serovar Typhi isolate AG15 harboring DNA gyrase A S83F mutation by disk diffusion method

| Compound | MIC [1] | MIC [2] | MIC [3] | MIC [4] | MIC [5] | MIC [6] | MIC [7] | MIC [8] | MIC [9] | MIC [10] | MIC [11] | MIC [12] | MIC [13] | MIC [14] | MIC [15] | MIC [16] | MIC [17] | MIC [18] | MIC [19] | MIC [20] | also measured |
| --- | --- | --- | --- | --- | --- | --- | --- | --- | --- | --- | --- | --- | --- | --- | --- | --- | --- | --- | --- | --- | --- |
| O=C(O)c1cn(C2CC2)c2cc(N3CCNCC3)c(F)cc2c1=O [CIPROFLOXACIN] | 0.38 µg/mL (≈ 1.15 µM) | 0.5 µg/mL (≈ 1.51 µM) | 0.25 µg/mL | 0.5 µg/mL (≈ 1.51 µM) | 0.06 µg/mL (≈ 0.181 µM) | 0.38 µg/mL (≈ 1.15 µM) | 0.25 µg/mL | 0.5 µg/mL | 0.38 µg/mL | 0.25 µg/mL | 0.25 µg/mL (≈ 0.754 µM) | 0.25 µg/mL | 0.5 µg/mL (≈ 1.51 µM) | 0.38 µg/mL | 0.25 µg/mL | 0.5 µg/mL (≈ 1.51 µM) | 0.38 µg/mL (≈ 1.15 µM) | 0.5 µg/mL (≈ 1.51 µM) | 0.38 µg/mL (≈ 1.15 µM) | 0.38 µg/mL | MIC [21]: 0.5 µg/mL; MIC [22]: 0.38 µg/mL (≈ 1.15 µM); MIC [23]: 0.5 µg/mL (≈ 1.51 µM); MIC [24]: 0.5 µg/mL (≈ 1.51 µM); MIC [25]: 0.25 µg/mL; MIC [26]: 0.5 µg/mL (≈ 1.51 µM); MIC [27]: 0.25 µg/mL; MIC [28]: 0.38 µg/mL; MIC [29]: 0.5 µg/mL (≈ 1.51 µM); MIC [30]: 0.5 µg/mL (≈ 1.51 µM); MIC [31]: 0.5 µg/mL; MIC [32]: 0.25 µg/mL; MIC [33]: 0.25 µg/mL; MIC [34]: 0.5 µg/mL; MIC [35]: 0.25 µg/mL; MIC [36]: 0.25 µg/mL; MIC [37]: 0.38 µg/mL; MIC [38]: 0.5 µg/mL (≈ 1.51 µM); MIC [39]: 0.5 µg/mL (≈ 1.51 µM) |
| COc1c(N2CCNC(C)C2)c(F)cc2c(=O)c(C(=O)O)cn(C3CC3)c12 (stereo not drawn) [GATIFLOXACIN] | 0.13 µg/mL (≈ 0.346 µM) | 0.125 µg/mL (≈ 0.333 µM) | 0.19 µg/mL | 0.19 µg/mL (≈ 0.506 µM) | 0.032 µg/mL (≈ 0.0852 µM) | 0.13 µg/mL (≈ 0.346 µM) | 0.094 µg/mL | 0.094 µg/mL | 0.25 µg/mL | 0.19 µg/mL | 0.09 µg/mL (≈ 0.24 µM) | 0.125 µg/mL | 0.094 µg/mL (≈ 0.25 µM) | 0.094 µg/mL | 0.125 µg/mL | 0.125 µg/mL (≈ 0.333 µM) | 0.13 µg/mL (≈ 0.346 µM) | 0.25 µg/mL (≈ 0.666 µM) | 0.13 µg/mL (≈ 0.346 µM) | 0.094 µg/mL | MIC [21]: 0.125 µg/mL; MIC [22]: 0.13 µg/mL (≈ 0.346 µM); MIC [23]: 0.094 µg/mL (≈ 0.25 µM); MIC [24]: 0.19 µg/mL (≈ 0.506 µM); MIC [25]: 0.19 µg/mL; MIC [26]: 0.19 µg/mL (≈ 0.506 µM); MIC [27]: 0.19 µg/mL; MIC [28]: 0.13 µg/mL; MIC [29]: 0.25 µg/mL (≈ 0.666 µM); MIC [30]: 0.125 µg/mL (≈ 0.333 µM); MIC [31]: 0.125 µg/mL; MIC [32]: 0.19 µg/mL; MIC [33]: 0.19 µg/mL; MIC [34]: 0.094 µg/mL; MIC [35]: 0.19 µg/mL; MIC [36]: 0.125 µg/mL; MIC [37]: 0.125 µg/mL; MIC [38]: 0.125 µg/mL (≈ 0.333 µM); MIC [39]: 0.13 µg/mL (≈ 0.346 µM) |
